Data set [1] has as its system PK-1 cells. The data set is described as follows: MTT cell-growth assay for evaluation of inhibitory peptides. In kind it is cell-based, Human. The conditions noted are these: FIG. 4.
Data set [2] concerns PK-1 cells. Put plainly: Flow cytometric analysis of sub-G1 fraction (propidium iodide). In kind it is cell-based, Human. Conditions: 40 μM, 12 hr, FIG. 7. The protocol:
PK-1 cell was maintained as described before (RPMI with 10% FBS). The cells were incubated with or without negative control (40 μM as a final concentration) or C1958VIVIT (10, 20, and 40 μM) peptide for 12 hr. After the incubation, cells were detached by trypsin and collected to tubes and washed with PBS for 3 times. Then the cells were fixed with 67% ethanol for 30 min at room temperature (RT), washed with PBS once, and treated with RNase (2 mg/ml in PBS) for 30 min at RT. Finally the cell nuclei were stained with propidium iodide (PI) for 30 min at RT. Flow cytometric analysis was done with FACS calibur (BD).

On the set-up of data set [3]: species or system mice (BALB/cA Jcl-nu). Conditions: mouse, in vivo, 9 mg/kg/day. How it is done:
In vivo experiments were performed in our animal facility in accordance with institutional guidelines. A 0.1-ml aliquot of suspended PK-1 cells (5×10^6 cells) was injected subcutaneously into the flanks of six-week-old female athymic mice (BALB/cA Jcl-nu). Tumor volumes were determined using the formula: 0.52×(larger diameter)×(smaller diameter)×(depth). When the xenograft reached to 100 mm^3 in size, animals were randomly divided into two or three groups and received intratumoral or intravenous injection of 180 μg of 11R-C1958VIVIT, 11R-VEET, or PBS for 21 consecutive days. Tumor growth was assessed by calculating the ratio of tumor volume on the indicated day to the volume calculated on the initiation of treatment.

Ends that are not written are not given here.

For “RRRRRRRRRRR-GGG-MAGPPHIVEETGPHVI (RRRRRRRRRRRGGGMAGPPHIVEETGPHVI; Artificially synthesized peptide for inhibition of the interaction of C1958 and PPP3CA as control) [11R-VEET, 10, reference compound]”, the “inhibition of growth of the cells (MTT assay)” value with PK-1 cells [1] (peptide 40 μM) is given as “neither 11R—C1958 (25 μM) nor 11R-VEET (40 μM) peptides, significantly inhibited the growth of the cells”. Also, the “sub-G1 fraction of the treated cells” value in the data set on PK-1 cells [2] is “did not affect”.
For “RRRRRRRRRRR-GGG-KHLDVPDIIITPPTPT [11R-C1958]”, the “inhibition of growth of the cells (MTT assay)” value in the data set on PK-1 cells [1] (peptide 25 μM) was “neither 11R—C1958 (25 μM) nor 11R-VEET (40 μM) peptides, significantly inhibited the growth of the cells”.
“RRRRRRRRRRRGGGKHLDVPVIVITPPTPT [11R-C1958VIVIT, RRRRRRRRRRR-GGG-KHLDVPVIVITPPTPT]”: in data set [3], the “apparent negative effects on mice conditions” value is recorded as “nor apparent negative effects on mice conditions were observed”.

The record behind these values is patent US20090215666A1, “VIVIT POLYPEPTIDES, THERAPEUTIC AGENT COMPRISING THE SAME, AND METHOD OF SCREENING FOR ANTI-CANCER AGENT” (Oncotherapy Science, Inc., priority 2005, published 2009).
